The text below walks through data of PubChem BioAssay (NCI).

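Each compound was tested at five concentrations against cells in 96-well plates for 48 hours. GI50 is the concentration that inhibits growth by half. The concentration for full growth arrest is given as TGI.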 Bounds are passed on as bounds.

Test systems include DLD-1 colon; KM20L2 colon; LXFL 529 NSCLC; RXF 393 renal; XF 498 CNS; DMS 114 small cell lung; DMS 273 small cell lung; HOP-18 NSCLC; BT-549 breast; HS 578T breast.
Holding throughout (assay): growth of human tumour cells (NCI), 48 h

Take `O=c1c2cc(Br)ccc2nc(CCl)n1-c1ccc(O)c([N+](=O)[O-])c1`: the TGI in the assay with DLD-1 colon is 33.4 µM; in the assay with KM20L2 colon, over 100 µM; in the assay with LXFL 529 NSCLC, 39.9 µM; with RXF 393 renal, 25.7 µM; in the assay on XF 498 CNS, 29 µM.

Consider `O=C(/C=C/c1ccccc1)CC(=O)CCC(=O)Nc1ccc(Cl)cc1`, for which the TGI in the assay with DLD-1 colon, with DMS 114 small cell lung, in the assay with DMS 273 small cell lung, in the assay on HOP-18 NSCLC, with KM20L2 colon and in the assay on LXFL 529 NSCLC was over 100 µM in each case.

Turning to `Cc1ccccc1C(=O)N1CCN(C(=O)c2ccccc2C)CC1`, the TGI with DLD-1 colon, in the assay on DMS 273 small cell lung, with HOP-18 NSCLC, in the assay with KM20L2 colon, with LXFL 529 NSCLC and in the assay on RXF 393 renal was over 100 µM in each case. Further, in the assay with XF 498 CNS, the TGI was over 100 µM.

Consider `CCC(=O)Nc1nc2c(ncn2C2OC(COC(=O)CC)C(OC(=O)CC)C2OC(=O)CC)c(=O)[nH]1` (stereo unspecified), for which the TGI with DMS 273 small cell lung, in the assay on KM20L2 colon, in the assay with LXFL 529 NSCLC and in the assay on RXF 393 renal was over 100 µM in each case.

Regarding `O=[N+]([O-])c1ccc(-c2ccc(-c3csc(Nc4ccccc4)n3)o2)cc1`, the TGI in the assay with DLD-1 colon was 65.9 µM; with DMS 114 small cell lung it was 63.5 µM; in the assay with DMS 273 small cell lung it was 49.4 µM; with HOP-18 NSCLC, 29.4 µM; in the assay on KM20L2 colon it was 44.9 µM; in the assay with LXFL 529 NSCLC it was 32.9 µM. Moreover, the TGI with XF 498 CNS amounted to 32.4 µM.

Consider `COC(=O)C1(C(=O)OC)CC(=O)c2cc3c(cc2-c2c(cc(OC)c(OC)c2OC)C1)OCO3`, for which the TGI in the assay with DLD-1 colon, in the assay on DMS 273 small cell lung, in the assay on HOP-18 NSCLC, with KM20L2 colon, in the assay on LXFL 529 NSCLC and in the assay with RXF 393 renal was over 211 µM each time.

As for `CSc1nnc(COc2ccc(Cl)cc2)o1`, the TGI in the assay with DLD-1 colon, in the assay on DMS 114 small cell lung, in the assay with DMS 273 small cell lung, in the assay on KM20L2 colon, in the assay with LXFL 529 NSCLC and with RXF 393 renal was over 100 µM in each case. This compound also gave a TGI in the assay on XF 498 CNS of over 100 µM.

Regarding `Cc1nc(C(N)=S)sc1C(=O)/C=C/c1c(O)ccc2ccccc12`, the TGI in the assay with DLD-1 colon is over 100 µM; in the assay on DMS 114 small cell lung it was 98.1 µM; in the assay with DMS 273 small cell lung, over 100 µM; in the assay on HOP-18 NSCLC, over 100 µM; in the assay with KM20L2 colon it was over 100 µM; in the assay with LXFL 529 NSCLC it was over 100 µM. For the same compound, the TGI is 98.5 µM in the assay with RXF 393 renal and over 100 µM in the assay with XF 498 CNS.

As to `O=C(N/N=C/c1cccc(F)c1)c1ccncc1`, the TGI in the assay on DLD-1 colon, in the assay with DMS 114 small cell lung, in the assay on DMS 273 small cell lung, in the assay with HOP-18 NSCLC, in the assay on KM20L2 colon and in the assay with LXFL 529 NSCLC was over 100 µM throughout. The TGI in the assay on RXF 393 renal and with XF 498 CNS was over 100 µM in each case.

With `Cc1c2ccccc2cc2ccc3oc([N+](=O)[O-])cc3c12`, the TGI in the assay on DLD-1 colon is over 100 µM; in the assay with DMS 114 small cell lung, over 100 µM; with DMS 273 small cell lung, over 100 µM; in the assay on HOP-18 NSCLC, 62.8 µM; in the assay with KM20L2 colon, over 100 µM; in the assay with LXFL 529 NSCLC it was over 100 µM. In addition, the TGI in the assay with RXF 393 renal and in the assay on XF 498 CNS was over 100 µM in each case.

In the case of `COc1ccc(C(=O)NCCN(C)C)c2nc3ccccc3nc12`, the TGI in the assay on DLD-1 colon was over 65.4 µM; with DMS 114 small cell lung it was 12.5 µM; in the assay with DMS 273 small cell lung, over 100 µM; with HOP-18 NSCLC it was over 82.6 µM; with KM20L2 colon, 26.5 µM; in the assay with LXFL 529 NSCLC it was over 37.9 µM. In the assay with RXF 393 renal, this compound had a TGI of 25.4 µM.

With `c1ccc(N2N=C(c3ccco3)CC2c2ccco2)cc1` (stereo unspecified), the TGI in the assay with DMS 114 small cell lung, with DMS 273 small cell lung, in the assay on KM20L2 colon, in the assay with LXFL 529 NSCLC, in the assay on RXF 393 renal and with XF 498 CNS was over 100 µM throughout.

As to `COc1ccc(CN2CCC/C=C/CC(Cl)(Cl)C2=O)cc1`, the TGI was over 100 µM with DLD-1 colon; 71.3 µM in the assay on DMS 114 small cell lung; over 100 µM in the assay on DMS 273 small cell lung; over 100 µM in the assay with HOP-18 NSCLC; over 100 µM in the assay on KM20L2 colon; over 100 µM in the assay with LXFL 529 NSCLC. The same compound came in with a TGI with RXF 393 renal of 78.7 µM.

As for `NC(=S)NN/C=C(\C=Nc1ccccc1)[N+](=O)[O-]`, the TGI in the assay on DLD-1 colon, with DMS 114 small cell lung, in the assay with KM20L2 colon, in the assay with LXFL 529 NSCLC, with RXF 393 renal and with XF 498 CNS was over 100 µM in each case.

In the case of `CCOC(=O)C(NC(=O)c1nc[nH]c1[N+](=O)[O-])C(C)C` (stereo unspecified), the TGI is over 100 µM with DLD-1 colon; over 100 µM with DMS 114 small cell lung; over 100 µM in the assay with DMS 273 small cell lung; over 100 µM in the assay on LXFL 529 NSCLC; 93.2 µM in the assay with XF 498 CNS.

As to `C[N+](C)(C)CC1CCCCC1O` (stereo unspecified), the TGI with DLD-1 colon, with DMS 273 small cell lung, in the assay on HOP-18 NSCLC, in the assay on KM20L2 colon, with LXFL 529 NSCLC and in the assay on RXF 393 renal was over 100 µM throughout.

Regarding `CCOC(=O)NC(=O)c1cn(CCN2CCN(C(=O)CCCCCCCCCCC(=O)N3CCN(CCn4cc(C(=O)NC(=O)OCC)c(=O)[nH]c4=O)CC3)CC2)c(=O)[nH]c1=O`, the TGI in the assay with DLD-1 colon, with DMS 114 small cell lung, with HOP-18 NSCLC, in the assay on LXFL 529 NSCLC and with XF 498 CNS was over 100 µM each time.

With `Cc1cc(N(CCC#N)CCC#N)ccc1/C=C(\NC(=O)/C=C/c1ccccc1)C(=O)NN`, the TGI in the assay with BT-549 breast was 80.4 µM; with DLD-1 colon, over 100 µM; in the assay on DMS 114 small cell lung, over 100 µM; in the assay on DMS 273 small cell lung it was over 100 µM; in the assay with HS 578T breast it was 77.5 µM; in the assay on KM20L2 colon, over 100 µM. The TGI was over 100 µM in the assay on LXFL 529 NSCLC, over 92.3 µM in the assay with RXF 393 renal and over 100 µM in the assay with XF 498 CNS.

With `CSC(=NCCc1c[nH]c2ccccc12)NC#N`, the TGI in the assay with DLD-1 colon, in the assay with DMS 114 small cell lung, in the assay with DMS 273 small cell lung, in the assay on KM20L2 colon, with LXFL 529 NSCLC and in the assay with RXF 393 renal was over 100 µM each time. For the same compound, in the assay with XF 498 CNS, the TGI was over 100 µM.

For the compound `CC(C)(C)C(=O)[CH-]C(=O)C(C)(C)C.CC(C)(C)C(=O)[CH-]C(=O)C(C)(C)C.CN(C)c1ccc([O-])cc1.CN(C)c1ccc([O-])cc1.[Ti+4]`, the GI50 was over 100 µM in the assay on DLD-1 colon; over 100 µM in the assay with DMS 114 small cell lung; over 100 µM in the assay on DMS 273 small cell lung; over 100 µM with HOP-18 NSCLC; over 100 µM in the assay on KM20L2 colon; 57.9 µM in the assay with LXFL 529 NSCLC. For the same compound, in the assay on RXF 393 renal, the GI50 is 14.4 µM. Moreover, the TGI with DLD-1 colon, in the assay with DMS 114 small cell lung, in the assay with DMS 273 small cell lung, with HOP-18 NSCLC, in the assay on KM20L2 colon and in the assay with LXFL 529 NSCLC was over 100 µM throughout. For the same compound, the TGI in the assay with RXF 393 renal is over 100 µM.

For `N/N=C1\C(=O)N(CCc2ccccc2)C(=O)C1C(=O)NCCc1ccccc1` (stereo unspecified), the TGI with DLD-1 colon, in the assay with DMS 273 small cell lung, in the assay on KM20L2 colon, in the assay on LXFL 529 NSCLC and in the assay on XF 498 CNS was over 100 µM each time.

`CSC(=S)N/N=C/c1nccc2ccccc12`: the TGI is 22.4 µM in the assay on DLD-1 colon; over 21.8 µM in the assay on DMS 273 small cell lung; 9.78 µM in the assay with HOP-18 NSCLC; over 27.6 µM with KM20L2 colon; 24.6 µM with LXFL 529 NSCLC; 6.01 µM in the assay with RXF 393 renal. The same compound had a TGI in the assay on XF 498 CNS of 16.4 µM.

On to `CSC1=Nc2ccccc2N=C(c2ccc(Cl)cc2)C1`, for which the TGI in the assay on DLD-1 colon is over 100 µM; in the assay with HOP-18 NSCLC it was over 100 µM; in the assay with KM20L2 colon, over 100 µM; with LXFL 529 NSCLC, over 100 µM; in the assay on RXF 393 renal, 79.2 µM; with XF 498 CNS, over 100 µM.

Take `O=C(O)c1ccc(C2C(=O)N[C@@H]3CCC[C@H]23)cc1` (stereo partly specified): the TGI with DLD-1 colon, in the assay with DMS 114 small cell lung, in the assay on DMS 273 small cell lung, in the assay with HOP-18 NSCLC, in the assay with KM20L2 colon and in the assay with LXFL 529 NSCLC was over 100 µM each time. The compound also had a TGI with RXF 393 renal of over 100 µM.

For the compound `CCCCN(CCCC)C(=O)/C(CC(=O)c1cccc2ccccc12)=N\NC(=O)c1cc2ccccc2cc1O`, the TGI with DLD-1 colon was over 100 µM; with KM20L2 colon it was 51.3 µM; with LXFL 529 NSCLC, over 100 µM; with RXF 393 renal it was 63 µM; in the assay on XF 498 CNS it was 88.1 µM.

With `Cc1c(C(=O)O)oc2ccc([N+](=O)[O-])cc12`, the TGI in the assay with DLD-1 colon, with DMS 114 small cell lung, in the assay with DMS 273 small cell lung, in the assay on HOP-18 NSCLC, with KM20L2 colon and in the assay with LXFL 529 NSCLC was over 100 µM each time. Further, in the assay on XF 498 CNS, the TGI was over 100 µM.

`CC(=O)OCC1OC(N2C(=O)C(=O)c3ccccc32)C(OC(C)=O)C(OC(C)=O)C1OC(C)=O` (stereo unspecified): the TGI with DLD-1 colon, with DMS 114 small cell lung, in the assay on DMS 273 small cell lung, in the assay with KM20L2 colon, in the assay with LXFL 529 NSCLC and in the assay on RXF 393 renal was over 100 µM throughout.
